Data from article PMC4823954, “From fighting depression to conquering tumors: a novel tricyclic thiazepine compound as a tubulin polymerization inhibitor” (Cell Death & Disease, 2016).

Columns and labels:
Experiment in all cases: KINOMEscan
Format in all cases: binding
Details in all cases: read-out: % Ctrl
FGFR2 = target: T1, FGFR2 (Homo sapiens, UniProt P21802)
T1 construct: purchased DiscoveRx KINOMEscan
Description: (§1) The binding assay for 442 non-mutant kinases was performed using KINOMEscan (DiscoveRx Corporation, Fremont, CA, USA) as reported previously.[58], [59] TBPT was screened at concentrations of 5 and 10 μM to identify the affected kinases. KINOMEscan is based on a competition reaction that quantitatively measures the ability of a test compound to compete with an active site-directed ligand for binding to the kinase active site. […] After the assay plates were incubated with shaking for 1 h, the liganded beads were washed with washing buffer (1 × PBS and 0.05% Tween 20). Then, the beads were re-suspended in elution buffer (1 × PBS, 0.05% Tween 20, and 0.5 μM ligand) and incubated with shaking for 30 min. The kinase concentration in the eluates was measured via qPCR. The results are represented as ‘%Ctrl', which was calculated using the following formula: (test compound signal–positive control signal)/(DMSO signal–positive control signal) × 100%. A lower % Ctrl indicates stronger binding to the kinase active site.

ZAK = target: T2, ZAK (Homo sapiens, UniProt Q9NYL2)
T2 construct: purchased DiscoveRx KINOMEscan
T2 sequence (Q9NYL2 whole entry): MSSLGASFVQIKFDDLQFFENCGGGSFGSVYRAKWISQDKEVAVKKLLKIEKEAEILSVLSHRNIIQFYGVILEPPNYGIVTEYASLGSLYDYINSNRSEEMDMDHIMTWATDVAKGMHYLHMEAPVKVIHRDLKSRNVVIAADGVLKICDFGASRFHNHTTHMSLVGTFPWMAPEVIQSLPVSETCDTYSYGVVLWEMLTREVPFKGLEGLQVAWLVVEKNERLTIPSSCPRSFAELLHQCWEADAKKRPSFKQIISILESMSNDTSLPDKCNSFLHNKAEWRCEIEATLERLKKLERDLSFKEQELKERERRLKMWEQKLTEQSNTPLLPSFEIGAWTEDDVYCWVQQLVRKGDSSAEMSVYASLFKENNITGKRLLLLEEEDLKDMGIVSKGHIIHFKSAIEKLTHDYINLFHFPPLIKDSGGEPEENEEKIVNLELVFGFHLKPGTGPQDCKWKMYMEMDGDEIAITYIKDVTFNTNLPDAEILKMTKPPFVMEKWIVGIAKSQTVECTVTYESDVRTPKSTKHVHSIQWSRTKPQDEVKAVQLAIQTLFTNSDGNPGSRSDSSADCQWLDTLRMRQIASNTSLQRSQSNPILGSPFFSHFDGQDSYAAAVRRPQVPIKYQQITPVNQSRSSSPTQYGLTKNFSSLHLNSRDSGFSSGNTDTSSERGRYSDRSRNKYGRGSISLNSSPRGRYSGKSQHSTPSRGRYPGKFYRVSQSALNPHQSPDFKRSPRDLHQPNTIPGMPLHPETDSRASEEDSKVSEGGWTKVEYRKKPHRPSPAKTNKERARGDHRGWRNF
Description: as §1

DMPK = target: T3, DMPK (Homo sapiens, UniProt Q09013)
T3 construct: purchased DiscoveRx KINOMEscan
Description: as §1

GSK3A = target: T4, GSK3A (Homo sapiens, UniProt P49840)
T4 construct: purchased DiscoveRx KINOMEscan
Description: as §1

CAMK1D = target: T5, CAMK1D (Homo sapiens, UniProt Q8IU85)
T5 construct: purchased DiscoveRx KINOMEscan
Description: as §1

IGF1R = target: T6, IGF1R (Homo sapiens, UniProt P08069)
T6 construct: purchased DiscoveRx KINOMEscan
Description: as §1

IKK-alpha = target: T7, IKK-alpha (Homo sapiens, UniProt O15111)
T7 construct: purchased DiscoveRx KINOMEscan
T7 sequence (O15111 whole entry): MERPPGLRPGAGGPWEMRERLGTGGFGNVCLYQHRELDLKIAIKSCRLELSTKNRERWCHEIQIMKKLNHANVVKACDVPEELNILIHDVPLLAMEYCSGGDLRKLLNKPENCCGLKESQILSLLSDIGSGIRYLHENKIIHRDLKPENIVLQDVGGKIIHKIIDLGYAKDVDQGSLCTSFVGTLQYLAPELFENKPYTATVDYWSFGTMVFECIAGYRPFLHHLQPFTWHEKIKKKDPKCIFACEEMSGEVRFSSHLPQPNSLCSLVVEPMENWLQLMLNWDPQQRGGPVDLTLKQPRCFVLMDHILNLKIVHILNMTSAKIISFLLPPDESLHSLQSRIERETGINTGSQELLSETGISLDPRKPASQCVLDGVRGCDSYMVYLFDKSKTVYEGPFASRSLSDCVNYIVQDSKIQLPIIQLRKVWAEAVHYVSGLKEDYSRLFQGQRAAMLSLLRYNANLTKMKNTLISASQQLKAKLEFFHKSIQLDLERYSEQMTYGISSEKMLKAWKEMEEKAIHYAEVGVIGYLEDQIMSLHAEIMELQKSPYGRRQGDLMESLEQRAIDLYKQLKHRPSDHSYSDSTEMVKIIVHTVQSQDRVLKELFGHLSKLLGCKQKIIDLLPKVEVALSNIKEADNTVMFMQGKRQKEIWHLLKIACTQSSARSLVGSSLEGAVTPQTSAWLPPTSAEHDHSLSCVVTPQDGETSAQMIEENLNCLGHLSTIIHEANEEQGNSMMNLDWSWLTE
Description: as §1

FGR = target: T8, FGR (Homo sapiens, UniProt P09769)
T8 construct: purchased DiscoveRx KINOMEscan
Description: as §1

BLK = target: T9, BLK (Homo sapiens, UniProt P51451)
T9 construct: purchased DiscoveRx KINOMEscan
Description: as §1

GSK3B = target: T10, GSK3B (Homo sapiens, UniProt P49841)
T10 construct: purchased DiscoveRx KINOMEscan
Description: as §1

PIK3C2B = target: T11, PIK3C2B (Homo sapiens, UniProt O00750)
T11 construct: purchased DiscoveRx KINOMEscan
Description: as §1

TESK1 = target: T12, TESK1 (Homo sapiens, UniProt Q15569)
T12 construct: purchased DiscoveRx KINOMEscan
Description: as §1

PIK3CA = target: T13, PIK3CA (Homo sapiens, UniProt P42336)
T13 construct: purchased DiscoveRx KINOMEscan
Description: as §1

ULK2 = target: T14, ULK2 (Homo sapiens, UniProt Q8IYT8)
T14 construct: purchased DiscoveRx KINOMEscan
Description: as §1

NEK11 = target: T15, NEK11 (Homo sapiens, UniProt Q8NG66)
T15 construct: purchased DiscoveRx KINOMEscan
Description: as §1

EPHB6 = target: T16, EPHB6 (Homo sapiens, UniProt O15197)
T16 construct: purchased DiscoveRx KINOMEscan
Description: as §1

DRAK2 = target: T17, DRAK2 (Homo sapiens, UniProt O94768)
T17 construct: purchased DiscoveRx KINOMEscan
Description: as §1

MST1R = target: T18, MST1R (Homo sapiens, UniProt Q04912)
T18 construct: purchased DiscoveRx KINOMEscan
Description: as §1

NEK5 = target: T19, NEK5 (Homo sapiens, UniProt Q6P3R8)
T19 construct: purchased DiscoveRx KINOMEscan
Description: as §1

CAMK4 = target: T20, CAMK4 (Homo sapiens, UniProt Q16566)
T20 construct: purchased DiscoveRx KINOMEscan
Description: as §1

ABL1-nonphosphorylated = target: T21, ABL1-nonphosphorylated (Homo sapiens, UniProt P00519)
T21 construct: purchased DiscoveRx KINOMEscan
Description: as §1

p38-gamma = target: T22, p38-gamma (Homo sapiens, UniProt P53778)
T22 construct: purchased DiscoveRx KINOMEscan
T22 sequence (P53778 whole entry): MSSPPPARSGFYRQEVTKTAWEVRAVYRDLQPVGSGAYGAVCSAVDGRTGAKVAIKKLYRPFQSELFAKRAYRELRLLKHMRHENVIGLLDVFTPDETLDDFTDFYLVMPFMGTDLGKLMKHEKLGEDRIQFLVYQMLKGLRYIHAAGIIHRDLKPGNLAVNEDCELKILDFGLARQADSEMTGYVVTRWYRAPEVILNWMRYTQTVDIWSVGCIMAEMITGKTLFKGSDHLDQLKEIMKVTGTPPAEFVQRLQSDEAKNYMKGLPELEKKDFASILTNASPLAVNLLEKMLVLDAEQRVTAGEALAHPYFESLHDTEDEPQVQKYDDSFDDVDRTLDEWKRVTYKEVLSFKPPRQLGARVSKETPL
Description: as §1

PKMYT1 = target: T23, PKMYT1 (Homo sapiens, UniProt Q99640)
T23 construct: purchased DiscoveRx KINOMEscan
Description: as §1

DCAMKL2 = target: T24, DCAMKL2 (Homo sapiens, UniProt Q8N568)
T24 construct: purchased DiscoveRx KINOMEscan
Description: as §1

FGFR4 = target: T25, FGFR4 (Homo sapiens, UniProt P22455)
T25 construct: purchased DiscoveRx KINOMEscan
Description: as §1

STK33 = target: T26, STK33 (Homo sapiens, UniProt Q9BYT3)
T26 construct: purchased DiscoveRx KINOMEscan
T26 sequence (Q9BYT3 whole entry): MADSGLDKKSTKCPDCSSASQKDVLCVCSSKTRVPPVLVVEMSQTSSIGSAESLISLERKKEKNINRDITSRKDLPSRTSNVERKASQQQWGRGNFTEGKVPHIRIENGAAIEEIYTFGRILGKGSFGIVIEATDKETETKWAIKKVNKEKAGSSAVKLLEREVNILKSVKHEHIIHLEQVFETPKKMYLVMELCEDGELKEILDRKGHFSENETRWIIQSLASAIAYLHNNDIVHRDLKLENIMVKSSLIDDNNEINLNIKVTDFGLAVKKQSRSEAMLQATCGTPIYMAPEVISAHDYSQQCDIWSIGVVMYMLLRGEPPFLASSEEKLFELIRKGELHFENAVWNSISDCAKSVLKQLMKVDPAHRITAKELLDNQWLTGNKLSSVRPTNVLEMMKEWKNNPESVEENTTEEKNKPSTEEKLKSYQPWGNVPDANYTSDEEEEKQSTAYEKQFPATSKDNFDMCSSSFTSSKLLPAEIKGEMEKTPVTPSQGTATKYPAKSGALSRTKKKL
Description: as §1

MEK6 = target: T27, MEK6 (Homo sapiens, UniProt P52564)
T27 construct: purchased DiscoveRx KINOMEscan
T27 sequence (P52564 whole entry): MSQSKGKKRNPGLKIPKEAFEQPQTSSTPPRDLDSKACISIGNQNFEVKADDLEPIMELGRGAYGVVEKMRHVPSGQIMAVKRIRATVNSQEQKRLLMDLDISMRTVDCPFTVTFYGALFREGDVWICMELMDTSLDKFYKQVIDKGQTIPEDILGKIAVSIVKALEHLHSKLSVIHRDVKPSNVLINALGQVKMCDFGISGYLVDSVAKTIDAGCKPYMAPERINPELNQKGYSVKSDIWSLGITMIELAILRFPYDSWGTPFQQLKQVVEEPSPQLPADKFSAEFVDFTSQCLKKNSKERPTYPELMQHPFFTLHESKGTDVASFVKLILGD
Description: as §1

PAK3 = target: T28, PAK3 (Homo sapiens, UniProt O75914)
T28 construct: purchased DiscoveRx KINOMEscan
Description: as §1

EIF2AK1 = target: T29, EIF2AK1 (Homo sapiens, UniProt Q9BQI3)
T29 construct: purchased DiscoveRx KINOMEscan
Description: as §1

BRSK1 = target: T30, BRSK1 (Homo sapiens, UniProt Q8TDC3)
T30 construct: purchased DiscoveRx KINOMEscan
Description: as §1

ERBB3 = target: T31, ERBB3 (Homo sapiens, UniProt P21860)
T31 construct: purchased DiscoveRx KINOMEscan
T31 sequence (P21860 20-1342): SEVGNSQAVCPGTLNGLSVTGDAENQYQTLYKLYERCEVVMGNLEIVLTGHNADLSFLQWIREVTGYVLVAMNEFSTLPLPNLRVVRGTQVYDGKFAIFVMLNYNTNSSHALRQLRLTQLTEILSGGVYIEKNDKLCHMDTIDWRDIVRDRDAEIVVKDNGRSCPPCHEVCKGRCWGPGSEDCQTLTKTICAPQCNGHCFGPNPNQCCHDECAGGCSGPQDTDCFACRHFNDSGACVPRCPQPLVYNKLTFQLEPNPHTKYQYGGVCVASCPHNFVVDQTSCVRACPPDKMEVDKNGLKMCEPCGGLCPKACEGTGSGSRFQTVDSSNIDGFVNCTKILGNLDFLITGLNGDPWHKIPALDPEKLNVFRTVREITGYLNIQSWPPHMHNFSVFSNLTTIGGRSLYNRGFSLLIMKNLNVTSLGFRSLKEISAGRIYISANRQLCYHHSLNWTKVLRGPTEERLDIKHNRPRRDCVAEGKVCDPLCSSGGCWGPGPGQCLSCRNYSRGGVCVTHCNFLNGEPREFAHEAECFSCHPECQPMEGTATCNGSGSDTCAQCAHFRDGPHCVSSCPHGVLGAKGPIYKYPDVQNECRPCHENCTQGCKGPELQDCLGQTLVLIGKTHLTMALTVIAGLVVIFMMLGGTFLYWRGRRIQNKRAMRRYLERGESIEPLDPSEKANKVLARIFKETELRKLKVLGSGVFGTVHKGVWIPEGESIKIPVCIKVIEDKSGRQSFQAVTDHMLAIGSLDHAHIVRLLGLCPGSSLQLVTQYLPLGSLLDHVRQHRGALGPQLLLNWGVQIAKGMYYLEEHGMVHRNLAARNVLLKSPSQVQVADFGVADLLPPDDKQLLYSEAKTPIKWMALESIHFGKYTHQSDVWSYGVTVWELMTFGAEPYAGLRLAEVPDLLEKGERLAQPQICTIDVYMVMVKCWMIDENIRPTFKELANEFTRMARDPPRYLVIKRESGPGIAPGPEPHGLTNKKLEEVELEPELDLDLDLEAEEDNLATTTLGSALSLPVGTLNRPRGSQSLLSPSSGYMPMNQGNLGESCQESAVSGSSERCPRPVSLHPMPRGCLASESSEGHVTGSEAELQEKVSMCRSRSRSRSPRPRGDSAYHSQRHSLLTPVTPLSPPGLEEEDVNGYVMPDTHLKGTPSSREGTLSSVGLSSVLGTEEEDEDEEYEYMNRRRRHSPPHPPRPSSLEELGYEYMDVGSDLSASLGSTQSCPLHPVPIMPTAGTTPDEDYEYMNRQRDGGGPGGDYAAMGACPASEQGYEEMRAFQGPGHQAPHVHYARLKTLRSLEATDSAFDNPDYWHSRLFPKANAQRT
Description: as §1

T1 sequence (P21802 22-821): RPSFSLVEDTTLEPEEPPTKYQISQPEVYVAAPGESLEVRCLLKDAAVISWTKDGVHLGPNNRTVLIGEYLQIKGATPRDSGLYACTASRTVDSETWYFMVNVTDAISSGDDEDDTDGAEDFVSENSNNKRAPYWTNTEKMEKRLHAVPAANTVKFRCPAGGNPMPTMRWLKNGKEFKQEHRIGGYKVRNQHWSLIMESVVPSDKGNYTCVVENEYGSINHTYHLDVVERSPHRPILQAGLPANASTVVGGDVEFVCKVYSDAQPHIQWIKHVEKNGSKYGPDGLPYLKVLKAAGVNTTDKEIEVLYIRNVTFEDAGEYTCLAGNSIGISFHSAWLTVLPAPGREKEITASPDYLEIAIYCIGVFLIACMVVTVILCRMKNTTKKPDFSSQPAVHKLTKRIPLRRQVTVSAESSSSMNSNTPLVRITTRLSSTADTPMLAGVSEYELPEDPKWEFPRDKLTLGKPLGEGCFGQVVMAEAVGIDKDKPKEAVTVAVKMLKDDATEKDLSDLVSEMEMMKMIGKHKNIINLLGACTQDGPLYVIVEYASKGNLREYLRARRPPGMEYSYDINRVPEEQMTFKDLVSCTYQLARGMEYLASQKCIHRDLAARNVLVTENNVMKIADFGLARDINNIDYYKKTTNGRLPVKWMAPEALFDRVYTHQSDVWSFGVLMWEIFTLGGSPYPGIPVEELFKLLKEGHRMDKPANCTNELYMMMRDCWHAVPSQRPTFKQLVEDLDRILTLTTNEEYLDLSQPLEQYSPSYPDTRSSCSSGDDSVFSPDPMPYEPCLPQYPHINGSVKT

With `Cc1ccc(C2=Nc3cccnc3S(=O)(=O)c3ccccc32)cc1` [TBPT, 6-(p-tolyl)benzo[f] pyrido[2,3-b][1,4] thiazepine 11,11-dioxide] the remaining binding at 5 µM (FGFR2; 5 μM) was 93%, the remaining binding at 10 µM (FGFR2; 10 μM) was 100% and the remaining binding at 5 µM (ZAK; 5 μM) was 94%. For the same molecule, the remaining binding at 10 µM (ZAK; 10 μM) was 83%, the remaining binding at 5 µM (DMPK; 5 μM) was 88% and the remaining binding at 10 µM (DMPK; 10 μM) was 100%. For the same molecule, the remaining binding at 5 µM (GSK3A; 5 μM) was 100%, the remaining binding at 10 µM (GSK3A; 10 μM) was 100% and the remaining binding at 5 µM (CAMK1D; 5 μM) was 81%. The remaining binding at 10 µM (CAMK1D; 10 μM) was 91%, the remaining binding at 5 µM (IGF1R; 5 μM) was 100% and the remaining binding at 10 µM (IGF1R; 10 μM) was 79%. For the same molecule, the remaining binding at 5 µM (IKK-alpha; 5 μM) was 56%, the remaining binding at 10 µM (IKK-alpha; 10 μM) was 75% and the remaining binding at 5 µM (FGR; 5 μM) was 97%. For the same molecule, the remaining binding at 10 µM (FGR; 10 μM) was 73%, the remaining binding at 5 µM (BLK; 5 μM) was 88% and the remaining binding at 10 µM (BLK; 10 μM) was 88%. It also gave a remaining binding at 5 µM (GSK3B; 5 μM) of 89%, a remaining binding at 10 µM (GSK3B; 10 μM) of 100% and a remaining binding at 5 µM (PIK3C2B; 5 μM) of 100%. For the same molecule, the remaining binding at 10 µM (PIK3C2B; 10 μM) was 100%, the remaining binding at 5 µM (TESK1; 5 μM) was 87% and the remaining binding at 10 µM (TESK1; 10 μM) was 95%. It also gave a remaining binding at 5 µM (PIK3CA; 5 μM) of 100%, a remaining binding at 10 µM (PIK3CA; 10 μM) of 82% and a remaining binding at 5 µM (ULK2; 5 μM) of 91%. The remaining binding at 10 µM (ULK2; 10 μM) was 92%, the remaining binding at 5 µM (NEK11; 5 μM) was 43% and the remaining binding at 10 µM (NEK11; 10 μM) was 100%. For the same molecule, the remaining binding at 5 µM (EPHB6; 5 μM) was 99%, the remaining binding at 10 µM (EPHB6; 10 μM) was 100% and the remaining binding at 5 µM (DRAK2; 5 μM) was 100%. For the same molecule, the remaining binding at 10 µM (DRAK2; 10 μM) was 91%, the remaining binding at 5 µM (MST1R; 5 μM) was 80% and the remaining binding at 10 µM (MST1R; 10 μM) was 100%. For the same molecule, the remaining binding at 5 µM (NEK5; 5 μM) was 100%, the remaining binding at 10 µM (NEK5; 10 μM) was 100% and the remaining binding at 5 µM (CAMK4; 5 μM) was 100%. The remaining binding at 10 µM (CAMK4; 10 μM) was 93%, the remaining binding at 5 µM (ABL1-nonphosphorylated; 5 μM) was 89% and the remaining binding at 10 µM (ABL1-nonphosphorylated; 10 μM) was 100%. For the same molecule, the remaining binding at 5 µM (p38-gamma; 5 μM) was 100%, the remaining binding at 10 µM (p38-gamma; 10 μM) was 88% and the remaining binding at 5 µM (PKMYT1; 5 μM) was 86%. The remaining binding at 10 µM (PKMYT1; 10 μM) was 99%, the remaining binding at 5 µM (DCAMKL2; 5 μM) was 100% and the remaining binding at 10 µM (DCAMKL2; 10 μM) was 100%. The remaining binding at 5 µM (FGFR4; 5 μM) was 96%, the remaining binding at 10 µM (FGFR4; 10 μM) was 97% and the remaining binding at 5 µM (STK33; 5 μM) was 99%. For the same molecule, the remaining binding at 10 µM (STK33; 10 μM) was 100%, the remaining binding at 5 µM (MEK6; 5 μM) was 83% and the remaining binding at 10 µM (MEK6; 10 μM) was 100%. It also gave a remaining binding at 5 µM (PAK3; 5 μM) of 100%, a remaining binding at 10 µM (PAK3; 10 μM) of 100% and a remaining binding at 5 µM (EIF2AK1; 5 μM) of 100%. The remaining binding at 10 µM (EIF2AK1; 10 μM) was 100%, the remaining binding at 5 µM (BRSK1; 5 μM) was 100% and the remaining binding at 10 µM (BRSK1; 10 μM) was 97%. For the same molecule, the remaining binding at 5 µM (ERBB3; 5 μM) was 45% and the remaining binding at 10 µM (ERBB3; 10 μM) was 100%.
